For series [1] the following is noted: male, CD1, mouse, in vivo, po, 30 mg/kg.
Series [2] can be described thus: in vitro. The conditions noted are these: human, microsomes.
Series [3] addresses CSF1R (Homo sapiens (Human), UniProt P07333). Format: biochemical. As to conditions: Kinase Profiler.
Series [4] can be described thus: in vitro. As to conditions: dog, MDCK, MDCK-wild type cells.
The nature of series [5]: Full pharmacokinetic study in mice. The conditions noted are these: for half-life: male, CD1, mouse, plasma.
For series [6], the target named is RET (Homo sapiens (Human), UniProt P07949). Briefly: biochemical. The conditions noted are these: read-out: RET residual activity (%) at 1 μM, 1 μM.
RET, sequence (P07949 29-1114 limits assumed): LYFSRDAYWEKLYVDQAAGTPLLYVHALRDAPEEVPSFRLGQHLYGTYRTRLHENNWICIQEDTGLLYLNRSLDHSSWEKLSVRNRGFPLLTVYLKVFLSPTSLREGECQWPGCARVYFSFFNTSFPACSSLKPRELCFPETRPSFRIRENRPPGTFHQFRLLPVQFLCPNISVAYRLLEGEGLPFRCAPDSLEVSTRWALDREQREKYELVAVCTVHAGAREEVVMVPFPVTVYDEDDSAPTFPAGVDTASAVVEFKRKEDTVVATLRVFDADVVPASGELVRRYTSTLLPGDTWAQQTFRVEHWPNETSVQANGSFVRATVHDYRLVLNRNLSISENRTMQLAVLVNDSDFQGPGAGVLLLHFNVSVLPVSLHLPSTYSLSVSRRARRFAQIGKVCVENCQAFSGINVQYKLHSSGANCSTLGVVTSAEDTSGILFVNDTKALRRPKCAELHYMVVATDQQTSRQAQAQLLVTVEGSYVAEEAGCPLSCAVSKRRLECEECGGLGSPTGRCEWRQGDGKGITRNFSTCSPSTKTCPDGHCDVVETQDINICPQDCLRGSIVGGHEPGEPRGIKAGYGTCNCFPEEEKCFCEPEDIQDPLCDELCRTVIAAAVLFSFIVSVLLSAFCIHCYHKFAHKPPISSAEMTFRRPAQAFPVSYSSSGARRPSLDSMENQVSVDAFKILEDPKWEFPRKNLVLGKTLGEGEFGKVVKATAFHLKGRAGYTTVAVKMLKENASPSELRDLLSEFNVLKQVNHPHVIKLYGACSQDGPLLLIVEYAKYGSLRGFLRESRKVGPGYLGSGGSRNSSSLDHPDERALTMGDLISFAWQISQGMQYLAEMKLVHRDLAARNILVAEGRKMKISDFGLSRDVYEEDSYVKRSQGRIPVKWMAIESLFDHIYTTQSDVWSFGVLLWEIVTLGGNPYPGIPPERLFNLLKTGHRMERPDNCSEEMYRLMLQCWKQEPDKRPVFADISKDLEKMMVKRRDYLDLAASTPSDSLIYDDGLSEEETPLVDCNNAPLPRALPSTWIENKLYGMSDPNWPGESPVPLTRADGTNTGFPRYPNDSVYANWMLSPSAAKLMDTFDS
The target of series [7] is BRAF (Homo sapiens (Human), UniProt P15056). Briefly: biochemical. The conditions noted are these: read-out: BRAF residual activity (%) at 1 μM, 1 μM.
A short description of series [8]: Screening PK in mice after 30 mg/kg po. As to conditions: plasma, po, 30 mg/kg.
The conditions of series [9]: microsomes.
Series [10] in a line: Murine plasma protein binding.
The conditions of series [11]: microsomes. This is another data set of the same source.
The nature of series [12]: Human plasma-protein binding.
Series [13] concerns the target MDR1 (P-gp) (Homo sapiens (Human), UniProt P08183). The series is described as follows: in vitro. The conditions noted are these: dog, MDCK-MDR1, MDCK-MDR1 cells.
A short description of series [14]: in vitro. The conditions noted are these: mouse, microsomes.
The nature of series [15]: in vivo. The conditions noted are these: male, CD1, mouse, po, 30 mg/kg.
For series [16] the following is noted: mouse, in vivo, po, 30 mg/kg.
Series [17] concerns the target HCK (Homo sapiens (Human), UniProt P08631). The format is biochemical. The conditions noted are these: Kinase Profiler.
In series [18] the test system is AML. The conditions noted are these: administered intraperitoneally; cited from earlier work.
Series [19] deals with K562 human CML tumours. As to conditions: PO once a day for 10 days, 5-days-on and 2-days off; cited from earlier work.
For series [20] the following is noted: in vivo; cited from earlier work.
Series [21] relates to MPAL-associated AML cell lines (including MOLM-13 and MV4-11). The conditions noted are these: chemical inhibition of SIK3; cited from earlier work.

Where only a bound is given, the exact number is not on record here.

The values below come from patent US20230348453A1, “HALOGENATED-HETEROARYL AND OTHER HETEROCYCLIC KINASE INHIBITORS, AND USES THEREOF” (iOmx Therapeutics AG, priority 2020, published 2023).

CSF1R, sequence (P07333 20-972 limits assumed): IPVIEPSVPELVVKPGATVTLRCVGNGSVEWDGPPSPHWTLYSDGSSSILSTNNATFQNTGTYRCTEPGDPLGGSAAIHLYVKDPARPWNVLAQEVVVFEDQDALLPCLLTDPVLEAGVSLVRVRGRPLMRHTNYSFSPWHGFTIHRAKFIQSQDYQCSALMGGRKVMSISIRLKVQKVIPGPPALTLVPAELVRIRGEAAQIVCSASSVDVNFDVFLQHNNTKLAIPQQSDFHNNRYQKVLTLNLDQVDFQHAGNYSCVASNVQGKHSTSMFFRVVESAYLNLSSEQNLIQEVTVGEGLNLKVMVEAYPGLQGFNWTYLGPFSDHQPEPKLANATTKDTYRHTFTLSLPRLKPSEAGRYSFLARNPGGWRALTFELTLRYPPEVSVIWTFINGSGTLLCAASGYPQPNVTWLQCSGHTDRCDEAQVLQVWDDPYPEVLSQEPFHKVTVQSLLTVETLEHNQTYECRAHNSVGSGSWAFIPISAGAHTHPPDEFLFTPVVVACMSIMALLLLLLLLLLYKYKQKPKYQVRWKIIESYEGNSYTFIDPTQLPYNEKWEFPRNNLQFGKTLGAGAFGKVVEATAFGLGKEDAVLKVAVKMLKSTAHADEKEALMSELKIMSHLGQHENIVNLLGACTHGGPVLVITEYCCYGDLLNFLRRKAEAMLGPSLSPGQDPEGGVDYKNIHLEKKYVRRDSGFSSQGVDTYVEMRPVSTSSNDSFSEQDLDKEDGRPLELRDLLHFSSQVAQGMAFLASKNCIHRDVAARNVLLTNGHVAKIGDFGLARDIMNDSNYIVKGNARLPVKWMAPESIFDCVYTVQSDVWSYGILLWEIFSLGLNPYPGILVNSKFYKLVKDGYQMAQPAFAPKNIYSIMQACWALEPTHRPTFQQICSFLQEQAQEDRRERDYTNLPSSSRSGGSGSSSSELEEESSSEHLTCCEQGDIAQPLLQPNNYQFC

For `Cc1nc(Nc2ncc(C(=O)Nc3c(Cl)ccnc3C)s2)cc(N2CCN(CCO)CC2)n1` [Compound B3, N-(4-chloro-2-methylpyridin-3-yl)-2-((6-(4-(2-hydroxyethyl)piperazin-1-yl)-2-methylpyrimidin-4-yl)amino)thiazole-5-carboxamide], the “% AUCextrap, Total” value in [1] was 14%. For the same compound, the half-life in series [2] is 0.967 h; in series [5] (iv, 1 mg/kg), 0.2 h; in series [5] (po, 30 mg/kg), 2.4 h; in series [14], 1.03 h. In series [3], the CSF1R residual activity entry is “less than 1%”. Besides, the Papp in series [4] (Mean Papp A > B (10^−6 cm/s)) is 6.8 ×10⁻⁶ cm/s; in [4] (Mean Papp B > B (10^−6 cm/s)) it was 20 ×10⁻⁶ cm/s; in [13], 20 ×10⁻⁶ cm/s; in [13] (Mean Papp A > B (10^−6 cm/s)), under 0.8 ×10⁻⁶ cm/s. The “Cmax (ng/ml), Total” value in [5] (mouse, in vivo) is 99 ng/mL. The “t1/2 (h), Free” value in series [5] (mouse, in vivo) came out at 2.4 h. The figures for the remaining activity at 1 µM in [6] and in [7] were about 100% and about 50%, respectively. The concentration at 2 h in [8] (CD1, mouse, Free concentration (nM) at 2 hours, mice, 30 mg/kg po, 2 hours) was found to be 13 nM. For the same compound, the concentration at 7 h in [8] (CD1, mouse, Free concentration (nM) at 7 hours, mice, 30 mg/kg po, 7 hours) was determined as 3 nM. In series [8] (mouse), this compound returned a Cmax at 2 h of 56 ng/mL. This compound came in with a Mouse liver microsomal stability, Intrinsic clearance (L/min/mg) in series [9] of 22 µL/min/mg. The “Murine plasma protein binding, Percentage unbound (%)” value in [10] (Table 5A) and in [10] (Table 5.1A) was 11% each time. Further, the Human liver microsomal stability, Intrinsic clearance in series [11] stood at 24 µL/min/mg. For the same compound, the “Human plasma-protein binding, Percentage unbound (%)” value in series [12] (Table 5A) and in [12] (Table 5.1A) was 7% in each case. This compound displayed an AUC(0-inf) in [15] of 0.697 µM·h. Besides, the “Plasma concentration after 6 h” value in series [16] was determined as 29 nM. The HCK residual activity result in series [17] is reported as “less than 1%”.
On to `COc1ccc(N2C(=O)N(c3c(C)cccc3Cl)Cc3cnc(Nc4ccc(C5CCN(C)CC5)cc4OC)nc32)nc1` [YKL-05-099], for which, in [18], the AML progression result is “supressed AML progression in-vivo”.
`Cc1ccc(NC(=O)c2ccc(CN3CCN(C)CC3)cc2)cc1Nc1nccc(-c2cccnc2)n1` [imatinib]: in [19], the “outcome in mice bearing K562 human CML tumours” value is listed as “failed to produce a comparative response”.
On to `Cc1cn(-c2cc(NC(=O)c3ccc(C)c(Nc4nccc(-c5cccnc5)n4)c3)cc(C(F)(F)F)c2)cn1` [nilotinib], for which, in series [20], the “terminal / elimination half-life” value is on record as “approximately 17 hours”.
Turning to HG-9-91-01, the “viability of AML cell lines” value in [21] is “strongly decreases viability”.
